Data taken from patent US11926594B1, “6′-(3-bromophenyl)-2′-ethoxy-3,4′-bipyridine-3′-carbonitrile as an antioxidant compound” (KING FAISAL UNIVERSITY, priority 2023, dated 2024).

Experiment: DPPH radical scavenging antioxidant test
Assay type: biochemical
Settings: 517 nm; for Inhibition (radical scavenging inhibition): compound 3 μM in ethanol, 0.2 mL DPPH (0.75 mM), 30 minutes in the dark
Procedure: The antioxidant activity of 6′-(3-bromophenyl)-2′-ethoxy-3,4′-bipyridine-3′-carbonitrile was investigated by 2,2-diphenyl-1-picrylhydrazyl (DPPH) in vitro tests that employ vitamin C as the positive control.
The antioxidant properties of the 6′-(3-bromophenyl)-2′-ethoxy-3,4′-bipyridine-3′-carbonitrile compound were studied by adding 0.2 mL DPPH (0.75 mM)) to 6′-(3-bromophenyl)-2′-ethoxy-3,4′-bipyridine-3′-carbonitrile (3 μM) (4) in ethanol. After 30 minutes of incubation in the dark, the absorbance was read against a blank at 517 nm. Ascorbic acid (vitamin C) was used as standard antioxidants (positive control). A blank sample was prepared by 0.2 mL of DPPH in 3 mL ethanol. A negative control sample was run using ethanol instead of the sample. The radical scavenging inhibition was calculated using the following equation: […]

SMILES	Inhibition (radical scavenging inhibition) [%]	antioxidant potential (DPPH) compared to vitamin C (DPPH in vitro test, vitamin C as positive control)
O=C1O[C@H]([C@@H](O)CO)C(O)=C1O [vit c, Ascorbic acid, reference compound]	74	–
CCOc1nc(-c2cccc(Br)c2)cc(-c2cccnc2)c1C#N [Product 4, 6′-(3-bromophenyl)-2′-ethoxy-3,4′-bipyridine-3′-carbonitrile]	48	high potential as an antioxidant compared to vitamin C
